The values below come from article PMC4449006, “Targeting KRAS Oncogene in Colon Cancer Cells with 7-Carboxylate Indolo[3,2-b]quinoline Tri-Alkylamine Derivatives” (PLoS ONE, 2015).

The test system of data set [1] is SW620 cells. Briefly: MTS short-term cytotoxicity assay (72 h), SW620. Particulars: 72 h, MTS, standard errors ≤ 0.1. It counts as cell-based. As for the experimental part:
(§1) The short-term effect of compounds at 72 h on cell growth was studied using colorectal carcinoma cell lines with different KRAS and TP53 genotypes: human colorectal carcinoma HCT116 (mut Kras, wild-type (wt) p53), and human metastatic colorectal adenocarcinoma SW620 (mut Kras, mut p53). In parallel, we also used the immortalized human embryonic kidney cell line HEK293T (wt Kras, wt p53) and normal human colon fibroblast cells CCD18co (wt Kras, wt p53).
(§2) SW620 human colorectal adenocarcinoma cells (European Collection of Cell Cultures, ECACC, Porton Down, Wiltshire, UK), HEK293T human embryonic kidney cells (ATCC, LGC Standards, UK) HCT116 human colon carcinoma cells (ECACC), HCT116 p53(+/+) and p53(−/−) isogenic human colon cancer cells (GRCF Cell Center and Biorepository, the Johns Hopkins University, School of Medicine, Baltimore, MD, USA), were grown in Dulbecco’s modified Eagle’s medium (DMEM) supplemented with 10% fetal bovine serum, and 1% antibiotic/antimycotic (Invitrogen, Grand Island, NY, USA), CCD18co human colon fibroblasts (ATCC, CRL-1459) were grown in Minimum Essential Medium (MEM) supplemented with 10% fetal bovine serum, 1% antibiotic/antimycotic, 2 mM GlutaMAX, 0,1 mM Non-essential amino acids (NEAA) (Invitrogen) and […] Recombinant Human TNF-α (Peprotech, USA) and maintained at 37°C in a humidified atmosphere of 5% CO2.
(§3) Cell viability was evaluated by the tetrazolium dye (MTS) Short-Term Cytotoxicity Assay. […] Following 72 h of compound exposure, cell viability was evaluated using the CellTiter 96 AQueous Non-Radioactive Cell Proliferation Assay (Promega, Madison, WI, USA), using 3-(4,5-dimethylthiazol-2-yl)-5-(3-carboxymethoxyphenyl)-2-(4-sulfophenyl)-2H-tetrazolium, inner salt (MTS) as previously described [35]. Cell viability data were expressed as mean ±SD from at least three independent experiments. IC50 and IC65 values were determined using GaphPad Prism v.5.00 (GraphPad Software). In selected experiments, cell viability was also assessed by trypan blue exclusion assay, and general cell death by LDH activity from cell culture supernatants.

Data set [2] concerns CCD18co cells. Briefly: MTS short-term cytotoxicity assay (72 h), CCD18co. Conditions: Homo sapiens, CCD-18Co, MTS, standard errors ≤ 0.1, read-out: CCD18co IC50. The format is cell-based. How it is done: as §1, §2, §3
Data set [3] relates to HCT116 cells. The experiment in a line: Hoechst staining and Guava Nexin assay, HCT116. It counts as cell-based, human. Particulars: HCT116, 72 h, IC50 concentrations. How it is done:
To further validate the effect of the IQ3A compounds on the induction of apoptosis in HCT116 cells, apoptosis was ascertained by evaluating changes in nuclear morphology by Hoechst staining, and also by the Nexin assay, following 72 h of incubation with IQ3A compounds at the IC50 concentrations. […] The p53 protein plays a central and pivotal role in human cancers, having a potent tumor suppressive activity via pleiotropic mechanisms. Therefore, the steady-state levels of p53 protein were evaluated by immunoblotting, following 72 h of incubation with IQ3A compounds at the IC50 concentrations, to ascertain their involvement on the mechanism of apoptosis elicited by IQ3A. […] In SW620 cells, no significant increase in p53 steady-state expression was detected, possibly due to the mutant status of p53 (Fig 5A, middle panel). […]
Fig 4 Exposure to IQ3A compounds increases apoptosis in HCT116 cells. […] Results are expressed as the mean percentage (%) of early (LR quadrant) and late (UR quadrant) apoptotic cells.
The Nexin Assay distinguishes viable, early and late apoptotic cells based on the externalization of phosphatidylserine to the cell surface, where Annexin V can readily bind them. […]

Data set [4] deals with HCT116 cells. The arrangement: method as in PMID 23960016. Conditions: HCT116 vs primary rat hepatocytes; cited from earlier work.

Usually IC50 stands for the concentration that inhibits the measured activity by half. Turning to `CCN(CC)CCOC(=O)c1ccc2c(c1)c1nc3ccccc3c(OCCN(CC)CC)c1n2CCN(CC)CC` [1a], the “SW620 IC65” value in data set [1] came to 4.12 µM. In addition, the IC50 in data set [1] (Homo sapiens, SW-620, read-out: SW620 IC50) turned out to be 2.69 µM; in data set [2], 4.63 µM. The induction of apoptosis entry in data set [3] was “marked increase in apoptosis compared to vehicle”. In data set [4], the “Selective growth inhibition of KRAS mutant HCT116 cells compared to primary rat hepatocytes” value is on record as 100 fold.
